Drawing on ChEMBL document CHEMBL4257528, “Molecular insights into the interaction of Hsp90 with allosteric inhibitors targeting the C-terminal domain” (Medchemcomm, 2018), this text covers Activity and solubility for 3 compounds.

Data set [1] addresses Heat shock protein HSP 90-alpha (Homo sapiens) (UniProt P07900). Kind of data set: Binding affinity to N-terminal His6-tagged HSP90alpha CTD (unknown origin) expressed in Escherichia coli BL21(DE3) at compound to protein ratio of 164 by STD-NMR method.
The target is the same in data set [2]. Kind of data set: Binding affinity to 1H/13C-Ile HSP90alpha CTD (unknown origin) at 0.9 mM by Methyl-TROSY […] spectrum analysis.
Data set [3] is described as follows: Solubility of the compound in buffer solution. Format: physicochemical.
Data set [4] concerns the target Heat shock protein HSP 90-alpha (Homo sapiens) (UniProt P07900). Put plainly: Binding affinity to 1H/13C-Ile HSP90alpha CTD (unknown origin) at 2.5 mM by Methyl-TROSY […] spectrum analysis.
Data set [5] shares this target. Put plainly: Binding affinity to 1H/13C-Ile HSP90alpha CTD (unknown origin) at 1.4 mM by Methyl-TROSY […] spectrum analysis.

Active and inactive are the calls of the source. The calls are words filed in the database; no cut-off is given here.

Take `CO[C@@H]1[C@@H](O)[C@@H](O)[C@H](Oc2ccc3cc(NC(C)=O)c(=O)oc3c2C)OC1(C)C`: the outcome in data set [1] and in data set [2] was Active. Moreover, the solubility entry in data set [3] was “Soluble”.

As to `Nc1ncnc2c1ncn2[C@@H]1O[C@H](COP(=O)(O)OP(=O)(O)NP(=O)(O)O)[C@@H](O)[C@H]1O`, the result in data set [4] was Active.

For `CO[C@@H]1[C@@H](O)[C@@H](O)[C@H](Oc2ccc(CCNC(C)=O)c(-c3cccc(F)c3)c2)OC1(C)C` [CEMDOMESPIB], the outcome in data set [5] and in data set [1] was Active. In data set [3], the solubility result is reported as “Soluble”.
